Results taken from the CombiSolv-Exp solvation set (Vermeire and Green 2021).

Assay: solvent given as SMILES

CC(C)(C)C(=O)CC(=O)C(C)(C)C
Conditions	solvation free energy, 298 K [kcal/mol]
in O	-4.43

CCCOC=O
Conditions	solvation free energy, 298 K [kcal/mol]
in CCCCCCCCCCCCCCCC	-3.29
in CCCCCCCCO	-3.64
in O	-2.51
in [2H]O[2H]	-2.55

C[N+](=O)[O-]
Conditions	solvation free energy, 298 K [kcal/mol]
in Brc1ccccc1	-4.19
in C1CCCCC1	-2.81
in C1CCOC1	-5.04
in C1COCCO1	-5.08
in CC1COC(=O)O1	-5.38
in CC#N	-5.63
in CC(=O)N(C)C	-5.52
in CC(=O)O	-4.86
in CC(=O)c1ccccc1	-4.89
in CC(C)(C)O	-3.79
in CC(C)=O	-5.32
in CC(C)CC(C)(C)C	-2.74
in CC(C)CCCC(C)CCCC(C)CCCCC(C)CCCC(C)CCCC(C)C	-2.56
in CC(C)CCO	-3.74
in CC(C)O	-3.92
in CC(C)OC(C)C	-3.87
in CC(Cl)Cl	-4.84
in CCBr	-4.49
in CCC(C)=O	-5.11
in CCCC#N	-5.07
in CCCCC	-2.7
in CCCCCC	-2.8
in CCCCCCC	-2.62
in CCCCCCCC	-2.62
in CCCCCCCCCC	-2.69
in CCCCCCCCCCCCCCCC	-2.52
in CCCCCCCCO	-3.49
in CCCCCl	-4.07
in CCCCO	-3.88
in CCCCOCCCC	-3.57
in CCCO	-3.94
in CCN(CC)CC	-3.55
in CCO	-4.26
in CCOC(C)=O	-4.96
in CCOCC	-4.21
in CCOCCOCCOCC	-4.91
in CCOc1ccccc1	-4.39
in CN1CCCC1=O	-5.53
in CN(C)C=O	-5.58
in CN(C)P(=O)(N(C)C)N(C)C	-5.68
in CNC=O	-5.14
in CO	-4.66
in COC(C)=O	-5.13
in COCCO	-5
in COc1ccccc1	-4.65
in CS(C)=O	-5.63
in Cc1ccc(C)cc1	-4.13
in Cc1cccc(C)n1	-4.67
in Cc1cccc(O)c1	-4.68
in Cc1ccccc1	-4.27
in Cc1ccccn1	-4.88
in ClC(Cl)(Cl)Cl	-3.49
in ClC(Cl)Cl	-4.64
in ClCCCl	-4.9
in ClCCl	-4.98
in Clc1ccccc1	-4.24
in FC(F)(F)C(F)(F)C(F)(F)C(F)(F)C(F)(F)C(F)(F)F	-2.11
in Fc1c(F)c(F)c(F)c(F)c1F	-4.22
in Fc1ccccc1	-4.53
in ICI	-3.76
in Ic1ccccc1	-4.04
in NC=O	-4.73
in Nc1ccccc1	-5.08
in O	-4.03
in O=C1CCCCC1	-5.07
in O=C1CCCO1	-5.44
in O=CN1CCOCC1	-5.28
in OCCO	-4.07
in OCCOCCOCCO	-4.01
in OCc1ccccc1	-4.5
in S=C=S	-3.25
in [2H]O[2H]	-4.01
in c1ccc2ncccc2c1	-4.72
in c1ccc(COCc2ccccc2)cc1	-4.41
in c1ccccc1	-4.5
in c1ccncc1	-5.08
